Each structure is given as a SMILES string.

The target in this assay is Neuronal acetylcholine receptor subunit alpha-4 (Rattus norvegicus, UniProt P09483).
Chain of Neuronal acetylcholine receptor subunit alpha-4 (P09483 whole entry): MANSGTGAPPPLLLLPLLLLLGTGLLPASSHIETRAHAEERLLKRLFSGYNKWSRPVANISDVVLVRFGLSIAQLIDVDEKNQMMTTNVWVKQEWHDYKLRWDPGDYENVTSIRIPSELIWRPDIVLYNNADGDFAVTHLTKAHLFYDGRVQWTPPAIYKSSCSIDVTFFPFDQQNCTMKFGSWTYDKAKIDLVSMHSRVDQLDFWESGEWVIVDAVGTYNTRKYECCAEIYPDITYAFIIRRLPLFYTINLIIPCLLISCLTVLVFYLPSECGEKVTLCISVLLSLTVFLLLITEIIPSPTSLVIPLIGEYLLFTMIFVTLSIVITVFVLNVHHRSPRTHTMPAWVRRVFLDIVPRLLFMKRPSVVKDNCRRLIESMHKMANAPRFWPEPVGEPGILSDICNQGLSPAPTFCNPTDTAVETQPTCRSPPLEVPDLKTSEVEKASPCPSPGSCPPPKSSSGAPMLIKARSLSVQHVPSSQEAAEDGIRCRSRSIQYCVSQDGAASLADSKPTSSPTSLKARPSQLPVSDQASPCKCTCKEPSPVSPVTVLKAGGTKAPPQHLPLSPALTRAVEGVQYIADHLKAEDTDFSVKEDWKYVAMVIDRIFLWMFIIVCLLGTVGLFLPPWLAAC

Take `Clc1ccc(OC[C@@H]2CCN2)cn1`: the Ki (usually a dissociation constant, usually derived from enzyme kinetics or from competition with a known ligand) came out at 0.03 nM.

Values taken from BindingDB's records for doi:10.1126/science.279.5347.77 (Abbott Laboratories, 1998).
